Columns and labels:
[1] = target: Cyclin-dependent kinase 1/cyclin B1 (Homo sapiens) (UniProt P06493+P14635); settings: 100 nM
Description: Inhibition of CDK1/cyclinB (unknown origin) at 100 nM

[2] = target: Platelet-derived growth factor receptor beta (Homo sapiens) (UniProt P09619); settings: 100 nM
Description: Inhibition of His-tagged human recombinant PDGFRbeta (558 to 1106 residues) expressed in baculovirus using Fluorescein-Poly GT as substrate at 100 nM

[3] = target: Proto-oncogene tyrosine-protein kinase receptor Ret (Homo sapiens) (UniProt P07949); settings: 100 nM
Description: Inhibition of GST-tagged human recombinant RET (658 to 1114 residues) expressed in baculovirus using Fluorescein-Poly GT as substrate at 100 nM

[4] = target: T1, Tyrosine-protein kinase Lck (Homo sapiens, UniProt P06239); assay: Inhibition of His-tagged full length human recombinant LCK expressed in baculovirus using Fluorescein-Poly GT as substrate at 100 nM
[5] = target: Tyrosine-protein kinase JAK3 (Homo sapiens) (UniProt P52333); settings: 100 nM
Description: Inhibition of GST-tagged human recombinant JAK3 (781 to 1124 residues) expressed in baculovirus using GFP-ST AT1 as substrate at 100 nM

[6] = target: AMP-activated protein kinase, AMPK (Homo sapiens) (UniProt P54646+O43741+P54619+Q9UGJ0+Q9Y478+Q13131+Q9UGI9); settings: 100 nM
Description: Inhibition of full length human recombinant AMPK expressed in baculovirus expression system using Fluorescein-CREBtide as substrate at 100 nM

[7] = target: Tyrosine-protein kinase ABL1 (Homo sapiens, UniProt P00519, E255K); assay: Inhibition of His-tagged full length human recombinant ABL E255K mutant expressed in baculovirus using Fluorescein-Poly GT as substrate
PBMC = assay: Hematotoxicity in human PHA/IL2-stimulated PBMC; assay type: cell-based
[8] = target: Leukocyte tyrosine kinase receptor (Homo sapiens) (UniProt P29376); settings: 100 nM
Description: Inhibition of GST-tagged human recombinant TYK1 (450 to 864 residues) expressed in baculovirus using Fluorescein-Poly GT as substrate at 100 nM

[9] = target: T1, Tyrosine-protein kinase Lck; assay: Inhibition of His-tagged full length human recombinant LCK expressed in baculovirus using Fluorescein-Poly GT as substrate
Homo sapiens = species: Homo sapiens; settings: 100 nM
Description: Inhibition of CK1 (unknown origin) at 100 nM

[10] = target: T2, Tyrosine-protein kinase FRK (Homo sapiens, UniProt P42685); settings: 100 nM
T2 sequence (P42685 whole entry): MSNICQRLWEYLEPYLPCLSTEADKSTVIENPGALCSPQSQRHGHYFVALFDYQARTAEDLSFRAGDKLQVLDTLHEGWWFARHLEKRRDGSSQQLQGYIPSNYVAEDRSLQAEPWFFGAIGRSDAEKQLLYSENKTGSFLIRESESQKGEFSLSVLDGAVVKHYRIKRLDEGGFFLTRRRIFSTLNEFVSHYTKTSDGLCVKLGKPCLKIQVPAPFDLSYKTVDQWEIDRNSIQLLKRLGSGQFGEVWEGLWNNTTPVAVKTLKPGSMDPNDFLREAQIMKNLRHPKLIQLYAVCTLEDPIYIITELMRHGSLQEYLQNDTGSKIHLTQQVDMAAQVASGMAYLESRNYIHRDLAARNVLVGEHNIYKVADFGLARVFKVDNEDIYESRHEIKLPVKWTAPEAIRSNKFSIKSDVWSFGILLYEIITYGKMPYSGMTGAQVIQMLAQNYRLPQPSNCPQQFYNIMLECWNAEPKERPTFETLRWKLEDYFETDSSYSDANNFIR
Description: Inhibition of GST-tagged full length human recombinant FRK expressed in baculovirus using Fluorescein-Poly GT as substrate at 100 nM

[11] = target: T2, Tyrosine-protein kinase FRK; assay: Inhibition of GST-tagged full length human recombinant FRK expressed in baculovirus using Fluorescein-Poly GT as substrate
[12] = target: Ribosomal protein S6 kinase beta-1 (Homo sapiens) (UniProt P23443); settings: 100 nM
Description: Inhibition of GST-tagged human recombinant p70S6K (1 to 421 residues) expressed in baculovirus using Fluorescein-Crosstide as substrate at 100 nM

[13] = target: Inhibitor of nuclear factor kappa-B kinase subunit alpha (Homo sapiens) (UniProt O15111); settings: 100 nM
Description: Inhibition of His-tagged full length human recombinant IKKalpha expressed in baculovirus using Fluorescein-IKK as substrate at 100 nM

[14] = target: Protein kinase C gamma type (Homo sapiens) (UniProt P05129); settings: 100 nM
Description: Inhibition of full length human recombinant PKCgamma expressed in baculovirus using Fluorescein-PKC as substrate at 100 nM

[15] = Antiangiogenic activity in HRMEC after 72 hrs by MTT assay; assay type: functional, Homo sapiens
[16] = target: CDK9/cyclin T1 (Homo sapiens) (UniProt O60563+P50750); settings: 100 nM
Description: Inhibition of CDK9/cyclinT1 (unknown origin) at 100 nM

[17] = target: T3, Epidermal growth factor receptor (Homo sapiens, UniProt P00533); assay: Inhibition of GST-tagged human recombinant EGFR (668 to1210 residues) expressed in baculovirus using Fluorescein-Poly GT as substrate
T3 sequence (P00533 whole entry, the tested form may be a part): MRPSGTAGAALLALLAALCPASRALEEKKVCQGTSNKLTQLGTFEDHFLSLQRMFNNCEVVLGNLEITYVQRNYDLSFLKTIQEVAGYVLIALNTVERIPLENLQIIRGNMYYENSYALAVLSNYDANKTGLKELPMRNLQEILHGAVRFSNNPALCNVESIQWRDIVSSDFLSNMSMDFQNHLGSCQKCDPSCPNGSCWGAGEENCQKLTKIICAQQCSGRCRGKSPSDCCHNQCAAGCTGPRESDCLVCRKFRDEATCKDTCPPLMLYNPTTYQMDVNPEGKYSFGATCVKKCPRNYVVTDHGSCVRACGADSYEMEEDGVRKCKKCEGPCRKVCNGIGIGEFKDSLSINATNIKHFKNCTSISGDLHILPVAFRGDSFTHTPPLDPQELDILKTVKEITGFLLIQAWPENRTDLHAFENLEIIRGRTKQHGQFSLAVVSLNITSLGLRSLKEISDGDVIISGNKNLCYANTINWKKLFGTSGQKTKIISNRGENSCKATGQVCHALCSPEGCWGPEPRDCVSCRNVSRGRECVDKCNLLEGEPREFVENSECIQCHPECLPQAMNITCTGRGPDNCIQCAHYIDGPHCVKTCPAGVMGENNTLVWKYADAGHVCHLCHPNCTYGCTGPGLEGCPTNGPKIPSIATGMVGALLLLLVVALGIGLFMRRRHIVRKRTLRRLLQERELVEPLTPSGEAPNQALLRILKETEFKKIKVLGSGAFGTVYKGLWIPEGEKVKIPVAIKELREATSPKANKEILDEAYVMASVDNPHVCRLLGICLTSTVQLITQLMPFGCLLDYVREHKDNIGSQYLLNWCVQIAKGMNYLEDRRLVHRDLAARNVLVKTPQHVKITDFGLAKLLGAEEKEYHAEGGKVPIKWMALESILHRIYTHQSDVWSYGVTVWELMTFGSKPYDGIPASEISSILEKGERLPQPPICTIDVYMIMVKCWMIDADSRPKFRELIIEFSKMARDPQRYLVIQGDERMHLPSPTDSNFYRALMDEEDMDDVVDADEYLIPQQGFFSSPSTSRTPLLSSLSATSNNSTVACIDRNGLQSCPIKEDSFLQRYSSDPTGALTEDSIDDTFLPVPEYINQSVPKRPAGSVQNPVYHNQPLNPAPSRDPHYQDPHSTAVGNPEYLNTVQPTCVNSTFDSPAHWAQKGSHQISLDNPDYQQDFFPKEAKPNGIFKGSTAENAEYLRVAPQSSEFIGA

[18] = target: 3-phosphoinositide-dependent protein kinase 1 (Homo sapiens) (UniProt O15530); settings: 100 nM
Description: Inhibition of PDK1 (unknown origin) at 100 nM

[19] = target: Serine/threonine-protein kinase B-raf (Homo sapiens, UniProt P15056, V600E); assay: Inhibition of full length GST-tagged human recombinant BRAF V600E mutant expressed in baculovirus using Fluorescein-MAP2K1 as substrate
[20] = target: Proto-oncogene tyrosine-protein kinase Src (Homo sapiens, UniProt P12931); assay: Inhibition of full length His-tagged human recombinant cSRC expressed in baculovirus using Fluorescein-Poly GT as substrate at 100 nM
HUVEC = assay: Antiangiogenic activity in HUVEC after 72 hrs by MTT assay; assay type: functional, cell-based; settings: Homo sapiens
[21] = target: Protein kinase C alpha type (Homo sapiens) (UniProt P17252); settings: 100 nM
Description: Inhibition of full length human recombinant PKCalpha expressed in baculovirus using Fluorescein-PKC as substrate at 100 nM

[22] = target: Angiopoietin-1 receptor (Homo sapiens) (UniProt Q02763); settings: 100 nM
Description: Inhibition of GST-tagged human recombinant TIE2 (817 to 1101 residues) expressed in baculovirus using Fluorescein-Poly GT as substrate at 100 nM

[23] = target: Mitogen-activated protein kinase 14 (Homo sapiens) (UniProt Q16539); settings: 100 nM
Chain of Mitogen-activated protein kinase 14 (Homo sapiens) (Q16539 whole entry): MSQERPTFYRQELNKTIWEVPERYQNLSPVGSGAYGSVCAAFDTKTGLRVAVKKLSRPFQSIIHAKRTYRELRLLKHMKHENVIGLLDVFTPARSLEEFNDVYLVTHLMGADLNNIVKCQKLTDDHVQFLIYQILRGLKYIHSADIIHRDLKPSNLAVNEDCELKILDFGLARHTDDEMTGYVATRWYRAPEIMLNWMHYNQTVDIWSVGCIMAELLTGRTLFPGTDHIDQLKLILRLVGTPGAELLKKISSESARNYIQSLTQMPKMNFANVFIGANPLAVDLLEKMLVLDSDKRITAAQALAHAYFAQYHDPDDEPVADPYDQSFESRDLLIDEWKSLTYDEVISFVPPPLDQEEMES
Description: Inhibition of GST-tagged full length human recombinant p38alpha expressed in Escherichia coli using Fluorescein-Poly GT as substrate at 100 nM

[24] = test system: Tyrosine-protein kinase ABL1 (Homo sapiens), P00519 [E255K]; assay: Inhibition of His-tagged full length human recombinant ABL E255K mutant expressed in baculovirus using Fluorescein-Poly GT as substrate at 100 nM
[25] = test system: Tyrosine-protein kinase ABL1 (Homo sapiens), P00519 [T315I]; settings: 100 nM
Description: Inhibition of His-tagged full length human recombinant ABL1 T315I mutant expressed in baculovirus using Fluorescein-Poly GT as substrate at 100 nM

[26] = target: Tyrosine-protein kinase BTK (Homo sapiens) (UniProt Q06187); settings: 100 nM
Description: Inhibition of His-tagged full length human recombinant BTK expressed in baculovirus using Fluorescein-Poly GT as substrate at 100 nM

[27] = target: Tyrosine-protein kinase HCK (Homo sapiens, UniProt P08631); assay: Inhibition of GST-tagged full length human recombinant HCK expressed in baculovirus using Fluorescein-Poly GT as substrate at 100 nM
[28] = Tmax in Swiss mouse plasma at 20 mg/kg, po by LC/MS/MS analysis; assay type: ADME, organism-based
[29] = target: Serine/threonine-protein kinase B-raf (Homo sapiens) (UniProt P15056); assay: Inhibition of full length GST-tagged human recombinant BRAF expressed in baculovirus using Fluorescein-MAP2K1 as substrate at 100 nM
[30] = target: Tyrosine-protein kinase Fer (Homo sapiens) (UniProt P16591); settings: 100 nM
Chain of Tyrosine-protein kinase Fer (Homo sapiens) (P16591 whole entry, looked up): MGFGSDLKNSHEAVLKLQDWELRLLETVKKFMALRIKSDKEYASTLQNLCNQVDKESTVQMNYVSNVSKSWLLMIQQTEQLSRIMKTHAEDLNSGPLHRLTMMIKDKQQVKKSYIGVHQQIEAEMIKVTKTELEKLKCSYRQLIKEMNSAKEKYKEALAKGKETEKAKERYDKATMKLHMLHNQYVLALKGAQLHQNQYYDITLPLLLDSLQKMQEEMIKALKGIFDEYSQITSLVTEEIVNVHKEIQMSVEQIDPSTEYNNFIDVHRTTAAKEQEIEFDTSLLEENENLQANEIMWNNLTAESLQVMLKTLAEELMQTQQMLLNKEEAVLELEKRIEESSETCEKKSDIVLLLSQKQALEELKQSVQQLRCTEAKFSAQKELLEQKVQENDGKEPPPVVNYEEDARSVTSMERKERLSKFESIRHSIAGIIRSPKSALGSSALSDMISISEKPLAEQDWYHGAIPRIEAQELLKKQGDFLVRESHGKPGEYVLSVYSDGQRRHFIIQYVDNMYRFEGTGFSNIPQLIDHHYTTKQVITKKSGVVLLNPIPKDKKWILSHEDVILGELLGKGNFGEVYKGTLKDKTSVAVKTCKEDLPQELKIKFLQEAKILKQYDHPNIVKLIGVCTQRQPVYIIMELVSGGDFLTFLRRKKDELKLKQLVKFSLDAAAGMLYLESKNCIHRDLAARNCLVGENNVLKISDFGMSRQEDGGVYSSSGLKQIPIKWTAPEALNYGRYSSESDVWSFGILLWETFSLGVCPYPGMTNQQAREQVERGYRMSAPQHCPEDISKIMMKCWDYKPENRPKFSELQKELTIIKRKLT
Description: Inhibition of His-tagged human recombinant FER (541 to 822 residues) expressed in baculovirus using Fluorescein-Poly GT as substrate at 100 nM

[31] = target: RAC-beta serine/threonine-protein kinase (Homo sapiens) (UniProt P31751); settings: 100 nM
Description: Inhibition of full length His-tagged human recombinant AKT2 expressed in baculovirus using Fluorescein-Crosstide as substrate at 100 nM

[32] = target: Protein kinase C theta type (Homo sapiens) (UniProt Q04759); settings: 100 nM
Description: Inhibition of full length His-tagged human recombinant PKCtheta expressed in baculovirus using Fluorescein-PKC as substrate at 100 nM

[33] = target: Insulin receptor-related protein (Homo sapiens) (UniProt P14616); settings: 100 nM
Description: Inhibition of GST-tagged human recombinant INSRR (944 to 1297 residues) expressed in baculovirus using Fluorescein-Poly GT as substrate at 100 nM

[34] = target: Platelet-derived growth factor receptor alpha (Homo sapiens, UniProt P16234); assay: Inhibition of full length GST-tagged human recombinant PDGFRalpha expressed in baculovirus using Fluorescein-Poly GT as substrate at 100 nM
[35] = target: Focal adhesion kinase 1 (Homo sapiens) (UniProt Q05397); settings: 100 nM
Description: Inhibition of full length GST-tagged human recombinant FAK expressed in baculovirus using Fluorescein-Poly GT as substrate at 100 nM

[36] = target: Serine/threonine-protein kinase PAK 2 (Homo sapiens) (UniProt Q13177); settings: 100 nM
Description: Inhibition of GST-tagged full length human recombinant PAK2 expressed in baculovirus at 100 nM

[37] = target: Macrophage-stimulating protein receptor (Homo sapiens) (UniProt Q04912); settings: 100 nM
Chain of Macrophage-stimulating protein receptor (Homo sapiens) (Q04912 25-304 limits assumed): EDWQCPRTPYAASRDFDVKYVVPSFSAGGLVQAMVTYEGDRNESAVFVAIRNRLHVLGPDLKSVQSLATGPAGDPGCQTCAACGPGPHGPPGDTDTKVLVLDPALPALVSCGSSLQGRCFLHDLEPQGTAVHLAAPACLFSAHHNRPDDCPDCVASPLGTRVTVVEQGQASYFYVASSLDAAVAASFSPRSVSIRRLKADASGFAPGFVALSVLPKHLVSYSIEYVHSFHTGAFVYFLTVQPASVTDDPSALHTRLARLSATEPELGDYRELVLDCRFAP
Chain of Macrophage-stimulating protein receptor (Homo sapiens) (Q04912 310-1400 limits assumed): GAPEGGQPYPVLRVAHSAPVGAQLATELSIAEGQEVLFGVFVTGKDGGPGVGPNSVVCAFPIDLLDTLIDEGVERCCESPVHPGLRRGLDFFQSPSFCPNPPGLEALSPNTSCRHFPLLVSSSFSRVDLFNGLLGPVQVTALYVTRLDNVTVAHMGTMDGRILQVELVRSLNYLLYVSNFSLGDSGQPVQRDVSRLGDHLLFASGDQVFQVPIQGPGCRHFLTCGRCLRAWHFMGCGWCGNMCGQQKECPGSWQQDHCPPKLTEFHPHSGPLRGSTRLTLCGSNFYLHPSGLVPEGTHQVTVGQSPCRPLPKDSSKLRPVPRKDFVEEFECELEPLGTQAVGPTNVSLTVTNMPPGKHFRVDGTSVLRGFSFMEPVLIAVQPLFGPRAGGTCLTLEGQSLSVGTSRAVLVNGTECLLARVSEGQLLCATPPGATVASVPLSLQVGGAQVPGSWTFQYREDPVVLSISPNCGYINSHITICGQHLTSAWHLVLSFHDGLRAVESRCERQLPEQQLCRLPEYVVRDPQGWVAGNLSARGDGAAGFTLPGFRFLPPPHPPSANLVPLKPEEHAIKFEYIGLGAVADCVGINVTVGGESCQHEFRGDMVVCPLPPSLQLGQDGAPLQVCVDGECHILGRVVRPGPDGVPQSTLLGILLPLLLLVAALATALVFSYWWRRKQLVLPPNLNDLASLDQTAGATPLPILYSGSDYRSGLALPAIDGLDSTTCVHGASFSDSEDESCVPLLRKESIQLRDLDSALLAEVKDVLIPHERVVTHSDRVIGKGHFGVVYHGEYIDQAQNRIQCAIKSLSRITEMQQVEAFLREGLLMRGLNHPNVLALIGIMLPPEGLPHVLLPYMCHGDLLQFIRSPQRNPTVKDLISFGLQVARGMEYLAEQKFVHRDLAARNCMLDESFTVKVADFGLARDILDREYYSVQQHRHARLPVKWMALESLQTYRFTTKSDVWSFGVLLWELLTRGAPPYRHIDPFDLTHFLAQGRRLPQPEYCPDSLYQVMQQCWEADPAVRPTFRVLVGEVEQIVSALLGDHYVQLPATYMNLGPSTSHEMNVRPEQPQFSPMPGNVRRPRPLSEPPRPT
Description: Inhibition of GST-tagged human recombinant MST1R (983 to 1400 residues) expressed in baculovirus using Fluorescein-Poly GT as substrate at 100 nM

[38] = target: T3, Epidermal growth factor receptor; assay: Inhibition of GST-tagged human recombinant EGFR (668 to1210 residues) expressed in baculovirus using Fluorescein-Poly GT as substrate at 100 nM
[39] = target: Tyrosine-protein kinase ABL1 (Homo sapiens, UniProt P00519, G250E); assay: Inhibition of His-tagged full length human recombinant ABL G250E mutant expressed in baculovirus using Fluorescein-Poly GT as substrate

Q: For `COC(=O)c1cc2cc(NCc3cc(NC(=O)c4cc(-n5cnc(C)c5)cc(C(F)(F)F)c4)ccc3C)cnc2[nH]1`, which inhibition [1] is on record?
A: The inhibition was under 40%.

Q: What about the inhibition [2] of the same molecule?
A: The inhibition was under 40%.

Q: And the inhibition [3]?
A: The inhibition was under 40%.

Q: And the inhibition [4]?
A: The inhibition was over 80%.

Q: What about the inhibition [5] of the same molecule?
A: The inhibition was under 40%.

Q: And the inhibition [6]?
A: The inhibition was under 40%.

Q: And the IC50 [7]?
A: The IC50 was 73 nM.

Q: What about the EC50 (PBMC) of the same molecule?
A: The EC50 was 1200 nM.

Q: And the inhibition [8]?
A: The inhibition was under 40%.

Q: And the IC50 [9]?
A: The IC50 was 69 nM.

Q: And the inhibition (Homo sapiens)?
A: The inhibition was under 40%.

Q: What about the inhibition [10] of the same molecule?
A: Its inhibition is under 40%.

Q: And the IC50 [11]?
A: The IC50 was 62 nM.

Q: What about the inhibition [12] of the same molecule?
A: The inhibition was under 40%.

Q: What about the inhibition [13] of the same molecule?
A: The inhibition was under 40%.

Q: What about the inhibition [14] of the same molecule?
A: The inhibition was under 40%.

Q: What about the EC50 [15] of the same molecule?
A: The EC50 was 62 nM.

Q: What about the inhibition [16] of the same molecule?
A: The inhibition was under 40%.

Q: And the IC50 [17]?
A: Its IC50 is 15 nM.

Q: What about the inhibition [18] of the same molecule?
A: The inhibition was under 40%.

Q: And the IC50 [19]?
A: Its IC50 is 10 nM.

Q: What about the inhibition [20] of the same molecule?
A: Its inhibition is 49%.

Q: And the EC50 (HUVEC)?
A: Its EC50 is 34 nM.

Q: What about the inhibition [21] of the same molecule?
A: The inhibition was under 40%.

Q: And the inhibition [22]?
A: Its inhibition is under 40%.

Q: What about the inhibition [23] of the same molecule?
A: The inhibition was under 40%.

Q: And the inhibition [24]?
A: The inhibition was over 80%.

Q: And the inhibition [25]?
A: Its inhibition is under 40%.

Q: And the inhibition [26]?
A: The inhibition was under 40%.

Q: And the inhibition [27]?
A: The inhibition was over 80%.

Q: What about the Tmax [28] of the same molecule?
A: The Tmax was 30 min.

Q: What about the inhibition [29] of the same molecule?
A: Its inhibition is 54%.

Q: And the inhibition [30]?
A: Its inhibition is under 40%.

Q: And the inhibition [31]?
A: The inhibition was under 40%.

Q: And the inhibition [32]?
A: Its inhibition is under 40%.

Q: What about the inhibition [33] of the same molecule?
A: The inhibition was under 40%.

Q: What about the inhibition [34] of the same molecule?
A: The inhibition was 68%.

Q: What about the inhibition [35] of the same molecule?
A: Its inhibition is under 40%.

Q: And the inhibition [36]?
A: The inhibition was under 40%.

Q: What about the inhibition [37] of the same molecule?
A: The inhibition was under 40%.

Q: And the inhibition [38]?
A: The inhibition was 82%.

Q: What about the IC50 [39] of the same molecule?
A: The IC50 was 46 nM.

Source: ChEMBL document CHEMBL3808348, “Rational Design, Synthesis, and Biological Evaluation of 7-Azaindole Derivatives as Potent Focused Multi-Targeted Kinase Inhibitors” (J Med Chem, 2016)
